According to patent US8912169B2, “Beta-lactamase inhibitors” (VenatoRx Pharmaceuticals, Inc., priority 2012, dated 2014):

Key:
Type in all cases: biochemical
SHV-5 = target: T1, SHV-5 (Klebsiella pneumoniae, UniProt P0A3M1); test: β-lactamase enzyme inhibition, SHV-5
T1 construct: made in house; host or cells: E. coli BL21(DE3)
Procedure: (§1) For SHV-5, Kpc-2, p99AmpC and OXA-1 β-lactamases, E. coli BL21(DE3) bacterial cells carrying expression plasmids (expressed as native untagged proteins) for the individual β-lactamases were grown in 1 L of Superbroth (Teknova Inc. Hollister, Calif.) supplemented with 100 μg/mlkanamycin selection and 1×5052 (0.5% glycerol, 0.05% glucose and 0.2% α-lactose) at 35° C. for 18-20 hours. Cells were harvested by centrifugation (4,000×g, 4° C., 20 min), resuspended in 50 ml of 10 mM HEPES pH 7.5 ( 1/20 of the initial volume). The cells were lysed by sonication (5 pulses of 45 seconds) at 45 W on ice. The lysates were clarified by centrifugation at 10,000×g for 40 minutes at 4° C. Samples were diluted 5-fold in 50 mM sodium acetate pH 5.0, stored overnight at 4° C., after which they were centrifuged at 10,000×g for 30 minutes to clarify, and filtered through 0.45 μm filters. The samples were loaded onto a 5 ml Capto S sepharose cation exchange column (GE Healthcare) pre-equilibrated with 50 mM sodium acetate pH 5.0. The column was washed with 5 column volumes of 50 mM sodium acetate pH 5.0 to wash out unbound protein and a linear gradient of NaCl (0 to 500 mM) was used to elute the protein (over 16 CV) from the column. Fractions were assayed for β-lactamase activity using Centa (Calbiochem, Gibbstown, N.J.) or Nitrocefin (EMD Millipore chemicals, Darmstadt, Germany) as a reporter β-lactamase substrate for activity in the isolated fractions. Active fractions were pooled, concentrated and further purified by gel filtration chromatography on a Superdex 75 prep grade gel filtration column (GE Healthcare, Piscataway, N.J.) pre-equilibrated in 50 mM Hepes pH 7.5, 150 mM NaCl. Active fractions were pooled concentrated, quantitated by BCA protein determination (Thermo Scientific, Rockford, Ill.), dialyzed into PBS and frozen at −80° C. in 20% glycerol until use.
(§2) An equal volume of diluted enzyme stock was added, and the plates were incubated at 37° C. for 15 min. Nitrocefin was used as substrate for p99 AmpC, VIM-2 and OXA-1 and dispensed into each well at a final concentration of 100 μM. Absorbance at 486 nm was immediately monitored for 10 min using a Biotek Powerwave XS2 microplate spectrophotometer using the GENS software package (Biotek Instruments, Winooski Vt.). In an analogous fashion, imipenem was used as substrate for Kpc-2 and Cefotaxime was used for SHV-5, while changes in absorbance upon hydrolysis of the β-lactam ring were monitored at 300 nm and 260 nm respectively in UV-transparent 96-well microtiter assay plates. Maximum rates of hydrolysis were compared to those in control wells (without inhibitors), and percentages of enzyme inhibition were calculated for each concentration of inhibitor. The concentration of inhibitor needed to reduce the initial rate of hydrolysis of substrate by 50% (IC50) was calculated as the residual activity of β-lactamase at 486 nm using GraFit version 7 kinetics software package (Erithacus Software, Surrey, UK).
(§3) Using the methodology described above, examples of the current invention were evaluated for their ability to inhibit β-lactamase enzymes from all four Ambler classifications (A through D). […] NT=Not tested.

KPC-2 = target: T2, KPC-2 (Klebsiella pneumoniae, UniProt Q9F663); test: β-lactamase enzyme inhibition, KPC-2; details: substrate imipenem, 300 nm; read-out: Class A KPC-2 IC50
T2 construct: made in house; host or cells: E. coli BL21(DE3)
Procedure: as §1, §2, §3

VIM-2 = target: T3, VIM-2 (Escherichia coli, UniProt Q5U7L7); test: β-lactamase enzyme inhibition, VIM-2; details: substrate Nitrocefin 100 μM, 486 nm; read-out: Class B VIM-2 IC50
T3 construct: made in house; host or cells: E. coli BL21(DE3)
Procedure: For Vim-2 metallo β-lactamase, the procedure was identical with the following exceptions, first the protein was not pH adjusted to pH 5 with 50 mM sodium acetate, second, the chromatography step was changed to a 5 ml Q sepharose anion exchange column pre-equilibrated with 50 mM Hepes pH 7.5, and elution of the protein was achieved by a linear gradient of NaCl (0-600 mM). Finally, the VIM-2 purification required a second run (3rd step) on the Q sepharose anion exchange column to achieve acceptable purity (>90%).
as §2, §3

p99 AmpC = target: T4, p99 AmpC (Enterobacter cloacae, UniProt P05364); test: β-lactamase enzyme inhibition, p99 AmpC
T4 construct: made in house; host or cells: E. coli BL21(DE3)
Procedure: as §1, §2, §3

OXA-1 = target: T5, OXA-1 (Escherichia coli, UniProt P13661); test: β-lactamase enzyme inhibition, OXA-1; details: substrate Nitrocefin 100 μM, 486 nm; read-out: Class D OXA-1 IC50
T5 construct: made in house; host or cells: E. coli BL21(DE3)
Procedure: as §1, §2, §3

SMILES | IC50 (SHV-5) [nM] | IC50 (KPC-2) [nM] | IC50 (VIM-2) [nM] | IC50 (p99 AmpC) [nM] | IC50 (OXA-1) [nM]
CN(C)[C@H]1CC[C@H](CC(=O)N[C@H]2Cc3cccc(C(=O)O)c3OB2O)CC1 [Example 14, (R)-3-(2-(trans-4-(dimethylamino)cyclohexyl)acetamido)-2-hydroxy-3,4-dihydro-2H-benzo[e][1,2]oxaborinine-8-carboxylic acid] | < 100 | < 100 | 100 to 1000 | < 100 | < 100
NCCN[C@H]1CC[C@H](CC(=O)N[C@H]2Cc3cccc(C(=O)O)c3OB2O)CC1 [Example 15, (R)-3-(2-(trans-4-(2-aminoethylamino)cyclohexyl)acetamido)-2-hydroxy-3,4-dihydro-2H-benzo[e][1,2]oxaborinine-8-carboxylic acid] | < 100 | < 100 | < 100 | < 100 | 100 to 1000
O=C(C[C@H]1CC[C@H](N2CCNCC2)CC1)N[C@H]1Cc2cccc(C(=O)O)c2OB1O [Example 16, (R)-2-hydroxy-3-(2-(trans-4-(piperazin-1-yl)cyclohexyl)acetamido)-3,4-dihydro-2H-benzo[e][1,2]oxaborinine-8-carboxylic acid] | < 100 | < 100 | 1000 to 10000 | < 100 | < 100
O=C(C[C@H]1CC[C@@H](N2CCNCC2)CC1)N[C@H]1Cc2cccc(C(=O)O)c2OB1O [Example 17, (R)-2-hydroxy-3-(2-(cis-4-(piperazin-1-yl)cyclohexyl)acetamido)-3,4-dihydro-2H-benzo[e][1,2]oxaborinine-8-carboxylic acid] | 100 to 1000 | < 100 | 1000 to 10000 | < 100 | 100 to 1000
N[C@H]1CC[C@H](CCC(=O)N[C@H]2Cc3cccc(C(=O)O)c3OB2O)CC1 [Example 21, (R)-3-(3-(trans-4-aminocyclohexyl)propanamido)-2-hydroxy-3,4-dihydro-2H-benzo[e][1,2]oxaborinine-8-carboxylic acid] | < 100 | < 100 | 1000 to 10000 | < 100 | < 100
N=C(N)N[C@H]1CC[C@H](CCC(=O)N[C@H]2Cc3cccc(C(=O)O)c3OB2O)CC1 [Example 22, (R)-3-(3-(trans-4-guanidinocyclohexyl)propanamido)-2-hydroxy-3,4-dihydro-2H-benzo[e][1,2]oxaborinine-8-carboxylic acid] | < 100 | < 100 | 100 to 1000 | < 100 | < 100
CN(C)CCN(C)[C@H]1CC[C@H](CC(=O)N[C@H]2Cc3cccc(C(=O)O)c3OB2O)CC1 [Example 23, (R)-3-(2-(trans-4-((2-(dimethylamino)ethyl)(methyl)amino)cyclohexyl)acetamido)-2-hydroxy-3,4-dihydro-2H-benzo[e][1,2]oxaborinine-8-carboxylic acid] | < 100 | < 100 | 100 to 1000 | < 100 | 100 to 1000
N=C(N)NCCN[C@H]1CC[C@H](CC(=O)N[C@H]2Cc3cccc(C(=O)O)c3OB2O)CC1 [Example 25, (R)-3-(2-(trans-4-(2-guanidinoethylamino)cyclohexyl)acetamido)-2-hydroxy-3,4-dihydro-2H-benzo[e][1,2]oxaborinine-8-carboxylic acid] | < 100 | < 100 | < 100 | < 100 | < 100
O=C(C[C@H]1CC[C@H](NCCO)CC1)N[C@H]1Cc2cccc(C(=O)O)c2OB1O [Example 26, (R)-2-hydroxy-3-(2-(trans-4-(2-hydroxyethylamino)cyclohexyl)acetamido)-3,4-dihydro-2H-benzo[e][1,2]oxaborinine-8-carboxylic acid] | < 100 | < 100 | 1000 to 10000 | < 100 | 100 to 1000
O=C(C[C@H]1CC[C@H](NCc2cccnc2)CC1)N[C@H]1Cc2cccc(C(=O)O)c2OB1O [Example 27, (R)-2-hydroxy-3-(2-(trans-4-(pyridin-3-ylmethylamino)cyclohexyl)acetamido)-3,4-dihydro-2H-benzo[e][1,2]oxaborinine-8-carboxylic acid] | < 100 | < 100 | 100 to 1000 | < 100 | < 100
O=C(O)CN[C@H]1CC[C@H](CC(=O)N[C@H]2Cc3cccc(C(=O)O)c3OB2O)CC1 [Example 28, (R)-3-(2-(trans-4-(carboxymethylamino)cyclohexyl)acetamido)-2-hydroxy-3,4-dihydro-2H-benzo[e][1,2]oxaborinine-8-carboxylic acid] | < 100 | < 100 | 1000 to 10000 | < 100 | 100 to 1000
O=C(C[C@H]1CC[C@H](N2C=NCC2)CC1)N[C@H]1Cc2cccc(C(=O)O)c2OB1O [Example 29, (R)-3-(2-(trans-4-(4,5-dihydro-1H-imidazol-1-yl)cyclohexyl)acetamido)-2-hydroxy-3,4-dihydro-2H-benzo[e][1,2]oxaborinine-8-carboxylic acid] | < 100 | < 100 | 100 to 1000 | < 100 | < 100
N=CN[C@H]1CC[C@H](CC(=O)N[C@H]2Cc3cccc(C(=O)O)c3OB2O)CC1 [Example 30, (R)-3-(2-(trans-4-formimidamidocyclohexyl)acetamido)-2-hydroxy-3,4-dihydro-2H-benzo[e][1,2]oxaborinine-8-carboxylic acid] | < 100 | < 100 | 100 to 1000 | < 100 | 100 to 1000
O=C(CC1CCCCC1)N[C@H]1Cc2cccc(C(=O)O)c2OB1O [Example 31, (R)-3-(2-cyclohexylacetamido)-2-hydroxy-3,4-dihydro-2H-benzo[e][1,2]oxaborinine-8-carboxylic acid] | < 100 | < 100 | 1000 to 10000 | < 100 | < 100
O=C(C[C@H]1CC[C@H](NCc2ccccn2)CC1)N[C@H]1Cc2cccc(C(=O)O)c2OB1O [Example 32, (R)-2-hydroxy-3-(2-(trans-4-(pyridin-2-ylmethylamino)cyclohexyl)acetamido)-3,4-dihydro-2H-benzo[e][1,2]oxaborinine-8-carboxylic acid] | < 100 | < 100 | 100 to 1000 | < 100 | < 100
O=C(C[C@H]1CC[C@H](NCC2CCNCC2)CC1)N[C@H]1Cc2cccc(C(=O)O)c2OB1O [Example 33, (R)-2-hydroxy-3-(2-(trans-4-(piperidin-4-ylmethylamino)cyclohexyl)acetamido)-3,4-dihydro-2H-benzo[e][1,2]oxaborinine-8-carboxylic acid] | < 100 | < 100 | 100 to 1000 | < 100 | < 100
N=C(N)N1CCC(CN[C@H]2CC[C@H](CC(=O)N[C@H]3Cc4cccc(C(=O)O)c4OB3O)CC2)CC1 [Example 34, (R)-3-(2-(trans-4-((1-carbamimidoylpiperidin-4-yl)methylamino)cyclohexyl)acetamido)-2-hydroxy-3,4-dihydro-2H-benzo[e][1,2]oxaborinine-8-carboxylic acid] | < 100 | < 100 | 100 to 1000 | < 100 | < 100
